# Tests used:
# Assay in all cases: Antibacterial activity in vitro, MIC by broth microdilution
# H. influenzae Hain_49247 = format: cell-based, Haemophilus influenzae; conditions: unit assumed
# Summary of the method: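 Visible-growth inhibition defined the MIC, obtained by NCCLS broth microdilution at 35° C. over 18-24 hours with a final inoculum of 3×10^5–7×10^5 CFU/mL.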
# [1] = tested on: S. epidermidis Step_f50654 Pen S; format: cell-based; conditions: unit assumed
# Summary of the method: (§1)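 Broth microdilution per NCCLS in cation-adjusted Mueller-Hinton broth, final inoculum 3×10^5–7×10^5 CFU/mL, 2-fold serial drug dilutions, 35° C. for 18-24 hours. S. pneumoniae grown in CAMHB with 2-5% lysed horse blood under 5-10% CO2. MIC is the lowest concentration preventing visible growth.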
# [2] = tested on: S. epidermidis Step_14990; format: cell-based; conditions: unit assumed
# Summary of the method: as §1
# S. pyogenes Stpy_8668 = format: cell-based
# Summary of the method: as §1
# E. coli Esco_25922 = format: cell-based; conditions: Table 3, Strain ID M: E. coli Esco_25922; unit assumed
# Summary of the method: as §1
# E. faecalis Enfa_29212 = format: cell-based
# Summary of the method: as §1
# [3] = tested on: S. pneumoniae Stpn_Erm S 4297; format: cell-based, Streptococcus pneumoniae
# Summary of the method: as §1
# [4] = tested on: S. pneumoniae Stpn_Mef 5654; format: cell-based, Streptococcus pneumoniae; conditions: unit assumed
# Summary of the method: as §1
# [5] = tested on: S. pneumoniae Stpn_Mef S 3427; format: cell-based, Streptococcus pneumoniae
# Summary of the method: as §1
# [6] = tested on: S. pneumoniae Stpn_Erm 6849; format: cell-based, Streptococcus pneumoniae; conditions: unit assumed
# Summary of the method: as §1
# [7] = tested on: S. pneumoniae Stpn_297-749 Pen R; format: cell-based, Streptococcus pneumoniae
# Summary of the method: as §1
# [8] = tested on: S. pneumoniae Stpn_280-962 Pen S; format: cell-based, Streptococcus pneumoniae
# Summary of the method: as §1
# S. pneumoniae Stpn_49619 = format: cell-based, Streptococcus pneumoniae
# Summary of the method: as §1
# S. aureus Stau_29213 = format: cell-based; conditions: Table 5, Strain ID A: S. aureus Stau_29213; unit assumed
# Summary of the method: as §1
# [9] = Table 3, Strain ID L: H. influenzae Hain_49247
# [10] = Table 3, Strain ID B: S. epidermidis Step_f50654 Pen S
# [11] = Table 3, Strain ID A: S. epidermidis Step_14990
# [12] = Table 3, Strain ID D: S. pyogenes Stpy_8668
# [13] = Table 3, Strain ID C: E. faecalis Enfa_29212, unit assumed
# [14] = Table 3, Strain ID I: S. pneumoniae Stpn_Erm S 4297, unit assumed
# [15] = Table 3, Strain ID J: S. pneumoniae Stpn_Mef 5654
# [16] = Table 3, Strain ID K: S. pneumoniae Stpn_Mef S 3427, unit assumed
# [17] = Table 3, Strain ID H: S. pneumoniae Stpn_Erm 6849
# [18] = Table 3, Strain ID F: S. pneumoniae Stpn_297-749 Pen R
# [19] = Table 3, Strain ID G: S. pneumoniae Stpn_280-962 Pen S
# [20] = Table 3, Strain ID E: S. pneumoniae Stpn_49619
# [21] = Table 3, Strain ID C: E. faecalis Enfa_29212
# [22] = Table 3, Strain ID K: S. pneumoniae Stpn_Mef S 3427
# [23] = Table 5, Strain ID M: H. influenzae Hain_49247
# [24] = Table 5, Strain ID C: S. epidermidis Step_f50654
# [25] = Table 5, Strain ID B: S. epidermidis Step_14990
# [26] = Table 5, Strain ID E: S. pyogenes Stpy_8668
# [27] = Table 5, Strain ID D: E. faecalis Enfa_29212, unit assumed
# [28] = Table 5, Strain ID J: S. pneumoniae Stpn_Erm S 4297
# [29] = Table 5, Strain ID K: S. pneumoniae Stpn_Mef 5654
# [30] = Table 5, Strain ID L: S. pneumoniae Stpn_Mef S 3427, unit assumed
# [31] = Table 5, Strain ID I: S. pneumoniae Stpn_Erm 6849
# [32] = Table 5, Strain ID G: S. pneumoniae Stpn_297-749
# [33] = Table 5, Strain ID H: S. pneumoniae Stpn_280-962
# [34] = Table 5, Strain ID F: S. pneumoniae Stpn_49619
MIC (H. influenzae Hain_49247; [9]),"MIC [1, 10]","MIC [2, 11]",MIC (S. pyogenes Stpy_8668; [12]),MIC (E. coli Esco_25922),"MIC [3, 14]","MIC [4, 15]","MIC [6, 17]","MIC [7, 18]","MIC [8, 19]",MIC (S. pneumoniae Stpn_49619; [20]),MIC (H. influenzae Hain_49247; [23]),MIC (S. aureus Stau_29213),"MIC [1, 24]","MIC [2, 25]",MIC (S. pyogenes Stpy_8668; [26]),MIC (E. faecalis Enfa_29212; [27]),"MIC [4, 29]","MIC [6, 31]","MIC [7, 32]",SMILES,further results
–,–,–,–,–,–,–,–,–,–,–,3.13 µg/mL,0.2 µg/mL,0.2 µg/mL,0.2 µg/mL,≦0.05,0.1 µg/mL,0.78 µg/mL,0.4 µg/mL,≦0.05,"C=C[C@]12OC(=O)N(CCCCn3cnc(-c4cccnc4)c3)[C@@H]1[C@@H](C)C(=O)[C@H](C)C[C@@](C)(OC)[C@H](OC1O[C@H](C)C[C@H](N(C)C)[C@H]1O)[C@@H](C)C(=O)[C@@H](C)C(=O)O[C@@H]2CC (stereo partly drawn) [Example 48, (3aS,4R,7R,9R,10R,11R,13R,15R,15aR)-4-ethyl-11-methoxy-7,9,11,13,15-pentamethyl-2,6,8,14-tetraoxo-1-[4-(4-pyridin-3-yl-1H-imidazol-1-yl)butyl]-3a-vinyltetradecahydro-2H-oxacyclotetradecino[4,3-d][1,3]oxazol-10-yl 3,4,6-trideoxy-3-(dimethylamino)-D-xylo-hexopyranoside]","MIC [3, 28]: ≦0.05; MIC [5, 30]: 0.1 µg/mL; MIC [8, 33]: ≦0.05; MIC (S. pneumoniae Stpn_49619; [34]): ≦0.05"
–,–,–,–,–,–,–,–,–,–,–,6.25 µg/mL,0.2 µg/mL,0.2 µg/mL,0.2 µg/mL,≦0.05,0.1 µg/mL,0.78 µg/mL,0.1 µg/mL,≦0.05,"C=C[C@]12OC(=O)N(CCCCn3cnc(-c4cccnc4)c3)[C@@H]1[C@@H](C)C(=O)[C@H](C)C[C@](C)(OC)[C@H](OC1O[C@H](C)C[C@H](N(C)C)[C@H]1O)[C@@H](C)C(=O)[C@](C)(F)C(=O)O[C@@H]2CC (stereo partly drawn) [Example 49, (3aS,4R,7S,9R,10R,11S,13R,15R,15aR)-4-ethyl-7-fluoro-11-methoxy-7,9,11,13,15-pentamethyl-2,6,8,14-tetraoxo-1-[4-(4-pyridin-3-yl-1H-imidazol-1-yl)butyl]-3a-vinyltetradecahydro-2H-oxacyclotetradecino[4,3-d][1,3]oxazol-10-yl 3,4,6-trideoxy-3-(dimethylamino)-D-xylo-hexopyranoside]","MIC [3, 28]: ≦0.05; MIC ([5]; Table 5, Strain ID L: S. pneumoniae Stpn_Mef S 3427): ≦0.05; MIC [8, 33]: ≦0.05; MIC (S. pneumoniae Stpn_49619; [34]): ≦0.05"
–,–,–,–,–,–,–,–,–,–,–,6.25 µg/mL,0.4 µg/mL,0.2 µg/mL,0.4 µg/mL,≦0.05,0.2 µg/mL,0.4 µg/mL,0.1 µg/mL,≦0.05,"C=C[C@]12OC(=O)N(CCCC(C)(C)n3cnc(-c4cccnc4)c3)[C@@H]1[C@@H](C)C(=O)[C@H](C)C[C@](C)(OC)[C@H](OC1O[C@H](C)C[C@H](N(C)C)[C@H]1O)[C@@H](C)C(=O)[C@@H](C)C(=O)O[C@@H]2CC (stereo partly drawn) [Example 50, (3aS,4R,7R,9R,10R,11S,13R,15R,15aR)-4-ethyl-11-methoxy-7,9,11,13,15-pentamethyl-1-[4-methyl-4-(4-pyridin-3-yl-1H-imidazol-1-yl)pentyl]-2,6,8,14-tetraoxo-3a-vinyltetradecahydro-2H-oxacyclotetradecino[4,3-d][1,3]oxazol-10-yl 3,4,6-trideoxy-3-(dimethylamino)-D-xylo-hexopyranoside]","MIC [3, 28]: ≦0.05; MIC [5, 30]: 0.1 µg/mL; MIC [8, 33]: ≦0.05; MIC (S. pneumoniae Stpn_49619; [34]): ≦0.05"
–,–,–,–,–,–,–,–,–,–,–,6.25 µg/mL,0.2 µg/mL,0.2 µg/mL,0.2 µg/mL,≦0.05,0.01 µg/mL,0.4 µg/mL,0.2 µg/mL,≦0.05,"C/C=C\[C@]12OC(=O)N(CCCCn3cnc(-c4cccnc4)c3)[C@@H]1[C@@H](C)C(=O)[C@H](C)C[C@](C)(OC)[C@H](O[C@@H]1O[C@H](C)C[C@H](N(C)C)[C@H]1O)[C@@H](C)C(=O)[C@](C)(F)C(=O)O[C@@H]2CC [Example 66, (3aS,4R,7S,9R,10R,11S,13R,15R,15aR)-4-ethyl-7-fluoro-11-methoxy-7,9,11,13,15-pentamethyl-2,6,8,14-tetraoxo-3a-[(1Z)-prop-1-enyl]-1-[4-(4-pyridin-3-yl-1H-imidazol-1-yl)butyl]tetradecahydro-2H-oxacyclotetradecino[4,3-d][1,3]oxazol-10-yl 3,4,6-trideoxy-3-(dimethylamino)-D-xylo-hexopyranoside]","MIC ([3]; Table 5, Strain ID J: S. pneumoniae Stpn_Erm S 4297, unit assumed): 0.1 µg/mL; MIC [5, 30]: 0.1 µg/mL; MIC [8, 33]: ≦0.05; MIC (S. pneumoniae Stpn_49619; [34]): ≦0.05"

# Second part, the compound before the results:
SMILES,MIC (H. influenzae Hain_49247; [9]),"MIC [1, 10]","MIC [2, 11]",MIC (S. pyogenes Stpy_8668; [12]),MIC (E. coli Esco_25922),"MIC [3, 14]","MIC [4, 15]","MIC [6, 17]","MIC [7, 18]","MIC [8, 19]",MIC (S. pneumoniae Stpn_49619; [20]),MIC (H. influenzae Hain_49247; [23]),MIC (S. aureus Stau_29213),"MIC [1, 24]","MIC [2, 25]",MIC (S. pyogenes Stpy_8668; [26]),MIC (E. faecalis Enfa_29212; [27]),"MIC [4, 29]","MIC [6, 31]","MIC [7, 32]",further results
"CC[C@H]1OC(=O)[C@H](C)[C@@H](O[C@H]2C[C@@](C)(OC)[C@@H](O)[C@H](C)O2)[C@H](C)[C@@H](O[C@@H]2O[C@H](C)C[C@H](N(C)C)[C@H]2O)[C@](C)(OC)C[C@@H](C)C(=O)[C@H](C)[C@@H](O)[C@]1(C)O [Clar., clarithromycin, reference compound]",12.5 µg/mL,0.2 µg/mL,0.2 µg/mL,≦0.05,50 µg/mL,> 50 µg/mL,6.25 µg/mL,> 50 µg/mL,≦0.05,≦0.05,≦0.05,–,–,–,–,–,–,–,–,–,"MIC (E. faecalis Enfa_29212; [13]): 0.78 µg/mL; MIC [5, 16]: 1.56 µg/mL"
CC[C@H]1OC(=O)[C@H](C)C(=O)[C@H](C)[C@@H](O[C@@H]2O[C@H](C)C[C@H](N(C)C)[C@H]2O)[C@@](C)(OC)C[C@@H](C)C(=O)[C@H](C)[C@H]2NC(=O)O[C@@H]21 [Compound 4266],25 µg/mL,3.13 µg/mL,3.13 µg/mL,–,> 50 µg/mL,> 50 µg/mL,0.2 µg/mL,> 50 µg/mL,≦0.05,≦0.05,–,–,–,–,–,–,–,–,–,–,"MIC (S. pyogenes Stpy_8668; Table 3, Strain ID D: S. pyogenes Stpy_8668, unit assumed): 0.1 µg/mL; MIC (E. faecalis Enfa_29212; [13]): 1.56 µg/mL; MIC [5, 16]: 0.1 µg/mL; MIC (S. pneumoniae Stpn_49619; Table 3, Strain ID E: S. pneumoniae Stpn_49619, unit assumed): 0.2 µg/mL"
CC[C@H]1OC(=O)[C@H](C)C(=O)[C@H](C)[C@@H](O[C@@H]2O[C@H](C)C[C@H](N(C)C)[C@H]2O)[C@@](C)(OC)C[C@@H](C)C(=O)[C@H](C)[C@@H]2[C@@H]1OC(=O)N2CCCCn1cnc(-c2ccccc2)c1 [Compound 4710],3.13 µg/mL,0.2 µg/mL,0.1 µg/mL,≦0.5,50 µg/mL,–,0.2 µg/mL,0.2 µg/mL,≦0.5,≦0.5,≦0.5,–,–,–,–,–,–,–,–,–,"MIC (E. faecalis Enfa_29212; [21]): ≦0.05; MIC ([3]; Table 3, Strain ID I: S. pneumoniae Stpn_Erm S 4297): ≦0.05; MIC [5, 22]: ≦0.5"
CC[C@H]1OC(=O)[C@H](C)C(=O)[C@H](C)[C@@H](O[C@@H]2O[C@H](C)C[C@H](N(C)C)[C@H]2O)[C@@](C)(OC)C[C@@H](C)C(=O)[C@H](C)[C@@H]2[C@@H]1OC(=O)N2CCCCc1ccnc2ccccc12 [Compound 4711],1.56 µg/mL,0.1 µg/mL,0.1 µg/mL,≦0.5,50 µg/mL,0.2 µg/mL,0.1 µg/mL,6.25 µg/mL,≦0.5,≦0.5,≦0.5,–,–,–,–,–,–,–,–,–,"MIC (E. faecalis Enfa_29212; [21]): ≦0.05; MIC [5, 22]: ≦0.5"
CC[C@H]1OC(=O)[C@H](C)C(=O)[C@H](C)[C@@H](O[C@@H]2O[C@H](C)C[C@H](N(C)C)[C@H]2O)[C@@](C)(OC)C[C@@H](C)C(=O)[C@H](C)[C@@H]2[C@@H]1OC(=O)N2CCCCn1cnc2ncccc21 [Compound 4713],3.13 µg/mL,0.4 µg/mL,0.4 µg/mL,≦0.5,50 µg/mL,0.1 µg/mL,3.13 µg/mL,0.78 µg/mL,≦0.5,≦0.5,≦0.5,–,–,–,–,–,–,–,–,–,"MIC (E. faecalis Enfa_29212; [13]): 0.1 µg/mL; MIC [5, 16]: 0.4 µg/mL"

# From patent publication US6756359B2, “C12 modified erythromycin macrolides and ketolides having antibacterial activity” (Chiron Corporation, priority 2001, dated 2004)
